# Target: T1, Protein deacetylase HDAC6 (Homo sapiens, UniProt Q9UBN7)
# T1 sequence (Q9UBN7 whole entry): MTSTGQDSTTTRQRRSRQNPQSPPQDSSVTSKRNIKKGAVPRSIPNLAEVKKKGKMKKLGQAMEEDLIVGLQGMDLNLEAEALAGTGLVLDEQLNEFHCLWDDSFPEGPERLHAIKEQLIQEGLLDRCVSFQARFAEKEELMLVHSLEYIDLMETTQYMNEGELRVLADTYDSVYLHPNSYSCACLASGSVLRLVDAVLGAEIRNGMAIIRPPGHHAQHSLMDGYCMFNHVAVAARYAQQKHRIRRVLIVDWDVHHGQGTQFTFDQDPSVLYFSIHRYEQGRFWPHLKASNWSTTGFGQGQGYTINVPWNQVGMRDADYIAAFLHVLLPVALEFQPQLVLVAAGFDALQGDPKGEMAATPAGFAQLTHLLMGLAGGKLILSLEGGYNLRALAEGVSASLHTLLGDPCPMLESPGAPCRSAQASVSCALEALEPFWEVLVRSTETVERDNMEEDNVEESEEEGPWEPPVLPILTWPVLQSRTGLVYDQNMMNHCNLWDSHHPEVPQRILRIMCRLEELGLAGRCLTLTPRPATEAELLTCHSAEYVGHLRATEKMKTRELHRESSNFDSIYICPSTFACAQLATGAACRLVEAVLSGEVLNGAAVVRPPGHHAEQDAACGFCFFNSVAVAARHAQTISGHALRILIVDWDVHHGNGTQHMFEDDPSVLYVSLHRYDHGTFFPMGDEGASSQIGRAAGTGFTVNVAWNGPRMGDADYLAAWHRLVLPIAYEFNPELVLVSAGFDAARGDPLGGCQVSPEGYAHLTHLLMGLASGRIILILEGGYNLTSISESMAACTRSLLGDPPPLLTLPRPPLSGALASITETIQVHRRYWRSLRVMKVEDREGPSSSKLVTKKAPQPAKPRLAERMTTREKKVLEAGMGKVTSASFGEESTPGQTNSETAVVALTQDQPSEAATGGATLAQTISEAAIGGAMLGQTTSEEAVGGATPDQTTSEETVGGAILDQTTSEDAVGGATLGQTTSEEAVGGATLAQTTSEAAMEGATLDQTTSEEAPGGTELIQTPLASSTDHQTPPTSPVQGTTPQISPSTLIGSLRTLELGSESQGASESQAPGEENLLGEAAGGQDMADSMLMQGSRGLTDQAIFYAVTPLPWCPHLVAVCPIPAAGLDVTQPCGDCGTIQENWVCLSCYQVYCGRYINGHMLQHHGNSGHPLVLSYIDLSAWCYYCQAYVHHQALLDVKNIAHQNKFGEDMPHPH
# Assay: Displacement of N-terminal FITC-labeled RLRGG from N-terminal AviTag/C-terminal His6-tagged HDAC6 ZnF-UBD (unknown origin) expressed in Escherichia coli BL21 (DE3) after 10 mins by fluorescence polarization assay
# Conditions: not given; call rule not given here
row,IC50,SMILES
1,Not Active,COC(=O)CCc1nc2ccccc2nc1OC
2,Not Active,O=C(O)CCCc1nc2ccccc2s1
3,Not Active,CN(C(=O)Cn1c(CS(C)(=O)=O)nc2ccccc21)c1ccccc1
4,Not Active,COc1nccnc1CCC(=O)O
5,Not Active,COC(CC(=O)O)c1nc2ccccc2s1 (stereo unspecified)
6,Not Active,COc1nc2ccccc2nc1CCC(N)=O
7,Not Active,O=C(O)CCc1nc2ccccc2o1
8,Not Active,CS(=O)(=O)Cc1nc2ccccc2n1CC(=O)Nc1cccc(NC(N)=O)c1
9,Not Active,O=C(O)C(O)C(O)c1nc2ccccc2s1 (stereo unspecified)
10,Not Active,CC(Cc1nc2ccccc2s1)C(=O)O (stereo unspecified)
11,Not Active,CNC(=O)CCc1nc2ccccc2nc1OC
12,Not Active,O=C(O)Cc1ccc2ccccc2n1
13,Not Active,COC(Cc1nc2ccccc2s1)C(=O)O (stereo unspecified)
14,Not Active,O=C(O)CCc1cc2ccccc2o1
15,Not Active,O=C(O)CCc1nc2ccccc2[nH]1 [PROCODAZOLE]

# Same assay, conditions: read-out: IC50
row,IC50,SMILES
1,45 µM,COc1nc2ccccc2nc1CCC(=O)O
2,320 µM,O=C(O)Cn1cnc2ccccc2c1=O
3,150 µM,O=C(O)CCc1nc2cc(Cl)ccc2n(Cc2ccccc2)c1=O
4,51 µM,O=C(O)Cn1cnc2c(oc3ccccc32)c1=O
5,230 µM,O=C(O)CCc1nc(O)c2ccccc2n1
6,200 µM,O=C(O)Cn1cnc2ccc(Br)cc2c1=O
7,65 µM,Cn1c(=O)c(CCC(=O)O)nc2ccccc21
8,180 µM,O=C(O)CCc1nc2ccccc2s1
9,100 µM,Cn1c(CCC(=O)O)nc2ccccc21
10,25 µM,O=C(O)CCc1nc2ccccc2c2nc(=O)c(Cc3ccccc3)nn12
11,200 µM,O=C(O)Cn1nc(O)c2ccccc2c1=O
12,95 µM,COc1cc2ncn(CCC(=O)O)c(=O)c2cc1OC
13,240 µM,O=C(O)CCn1nnc2ccccc2c1=O
14,190 µM,Cc1cc(C)c2c(n1)sc1c(=O)n(CC(=O)O)cnc12
15,390 µM,O=C(O)Cc1nc2ccccc2s1
16,640 µM,NC(=O)c1cc(-n2c(CCC(=O)O)nc3ccccc32)cs1
17,77 µM,N#Cc1c2n(c3c(=O)n(CC(=O)O)cnc13)CCCC2
18,5.1 µM,O=C(O)CCc1nc2cc3nc(CCC(=O)O)sc3cc2s1
19,> 720 µM,O=C(O)CCc1ccc2ccccc2n1
20,44 µM,COc1cc2ncn(CC(=O)O)c(=O)c2cc1OC

# Target: T1, Protein deacetylase HDAC6
# Assay: Binding affinity to biotinylated HDAC6 ZnF-UBD (unknown origin) by surface plasmon resonance method
# Conditions: not given
row,Kd,SMILES
1,8 µM,O=C(O)CCc1nc2cc3nc(CCC(=O)O)sc3cc2s1
